Experimental data as given in ChEMBL document CHEMBL2424637, “Nucleophilic substitution reactions of 1,4-naphthoquinone and biologic properties of novel S-, S,S-, N-, and N,S-substituted 1,4-naphthoquinone derivatives” (2013).
≈ marks a conversion by molar mass, not a printed value. Calls of active or inactive are those of the source. The calls are words filed in the database; no cut-off is given here.

How the values were obtained:
Assay type in all cases: functional
Aspergillus niger [1] = experiment: Antifungal activity against Aspergillus niger F-1119 at 0.1% after 48 to 72 hrs by agar disk diffusion technique
Yamadazyma tenuis [2] = experiment: Antifungal activity against Candida tenuis VKM Y-70 after 24 to 72 hrs by serial dilution technique
Staphylococcus aureus [3] = experiment: Antibacterial activity against Staphylococcus aureus 209-P after 24 to 72 hrs by serial dilution technique
Yamadazyma tenuis [4] = experiment: Antifungal activity against Candida tenuis VKM Y-70 at 0.5% after 48 to 72 hrs by agar disk diffusion technique
Escherichia coli [5] = experiment: Antibacterial activity against Escherichia coli B-906 after 24 to 72 hrs by serial dilution technique
Aspergillus niger [6] = experiment: Antifungal activity against Aspergillus niger F-1119 after 24 to 72 hrs by serial dilution technique
Staphylococcus aureus [7] = experiment: Antibacterial activity against Staphylococcus aureus 209-P at 0.1% after 24 hrs by agar disk diffusion technique
Mycobacterium [8] = experiment: Antibacterial activity against Mycobacterium luteum B-917 after 24 to 72 hrs by serial dilution technique
Aspergillus niger [9] = experiment: Antifungal activity against Aspergillus niger F-1119 at 0.5% after 48 to 72 hrs by agar disk diffusion technique
Mycobacterium [10] = experiment: Antibacterial activity against Mycobacterium luteum B-917 at 0.1% after 24 hrs by agar disk diffusion technique
Escherichia coli [11] = experiment: Antibacterial activity against Escherichia coli B-906 at 0.1% after 24 hrs by agar disk diffusion technique
Mycobacterium [12] = experiment: Antibacterial activity against Mycobacterium luteum B-917 at 0.5% after 24 hrs by agar disk diffusion technique
Yamadazyma tenuis [13] = experiment: Antifungal activity against Candida tenuis VKM Y-70 at 0.1% after 48 to 72 hrs by agar disk diffusion technique
Staphylococcus aureus [14] = experiment: Antibacterial activity against Staphylococcus aureus 209-P at 0.5% after 24 hrs by agar disk diffusion technique
Escherichia coli [15] = experiment: Antibacterial activity against Escherichia coli B-906 at 0.5% after 24 hrs by agar disk diffusion technique

MIC (Yamadazyma tenuis [2])	MIC (Staphylococcus aureus [3])	MIC (Escherichia coli [5])	MIC (Aspergillus niger [6])	MIC (Mycobacterium [8])	SMILES	diameter of the inhibition zone (DIZ) (Aspergillus niger [1])	diameter of the inhibition zone (DIZ) (Yamadazyma tenuis [4])	diameter of the inhibition zone (DIZ) (Staphylococcus aureus [7])	diameter of the inhibition zone (DIZ) (Aspergillus niger [9])	diameter of the inhibition zone (DIZ) (Mycobacterium [10])	diameter of the inhibition zone (DIZ) (Escherichia coli [11])	diameter of the inhibition zone (DIZ) (Mycobacterium [12])	diameter of the inhibition zone (DIZ) (Yamadazyma tenuis [13])	diameter of the inhibition zone (DIZ) (Staphylococcus aureus [14])	diameter of the inhibition zone (DIZ) (Escherichia coli [15])
inactive	inactive	inactive	inactive	inactive	O=C1C(Sc2c(Cl)c(Cl)c(Cl)c(Cl)c2Cl)=C(N2CCCC2)C(=O)c2ccccc21	0 mm	0 mm	0 mm	0 mm	0 mm	0 mm	0 mm	0 mm	0 mm	0 mm
inactive	inactive	inactive	inactive	inactive	CCCCOC(=O)CCSC1=C(Sc2ccc(O)cc2)C(=O)c2ccccc2C1=O	0 mm	0 mm	0 mm	0 mm	0 mm	0 mm	6 mm	0 mm	0 mm	0 mm
inactive	inactive	inactive	62.5 µg/mL (≈ 136 µM)	125 µg/mL (≈ 272 µM)	CCCCOC(=O)CCSC1=C(N2CCC3(CC2)OCCO3)C(=O)c2ccccc2C1=O	7 mm	0 mm	0 mm	9 mm	0 mm	0 mm	0 mm	0 mm	0 mm	0 mm
125 µg/mL (≈ 232 µM)	inactive	inactive	inactive	inactive	O=C1C(Sc2c(Cl)c(Cl)c(Cl)c(Cl)c2Cl)=C(N2CCSCC2)C(=O)c2ccccc21	0 mm	0 mm	0 mm	0 mm	0 mm	0 mm	0 mm	0 mm	0 mm	0 mm
inactive	inactive	inactive	500 µg/mL (≈ 949 µM)	500 µg/mL (≈ 949 µM)	CC1CCC(C(C)(C)SC2=C(SC(C)(C)C3CCC(C)CC3=O)C(=O)c3ccccc3C2=O)C(=O)C1 (stereo not given)	0 mm	7.4 mm	0 mm	6 mm	0 mm	0 mm	0 mm	0 mm	0 mm	0 mm
inactive	inactive	inactive	inactive	125 µg/mL (≈ 209 µM)	CCCCOC(=O)CCSC1=C(Sc2c(Cl)c(Cl)c(Cl)c(Cl)c2Cl)C(=O)c2ccccc2C1=O	0 mm	0 mm	0 mm	6 mm	0 mm	0 mm	0 mm	0 mm	0 mm	0 mm
500 µg/mL (≈ 976 µM)	inactive	inactive	inactive	inactive	O=C1C(Sc2cc(Cl)ccc2Cl)=C(Sc2cc(Cl)ccc2Cl)C(=O)c2ccccc21	0 mm	7 mm	0 mm	0 mm	0 mm	0 mm	0 mm	0 mm	0 mm	0 mm
inactive	inactive	inactive	inactive	125 µg/mL (≈ 203 µM)	O=C1C(Sc2c(Cl)c(Cl)c(Cl)c(Cl)c2Cl)=C(N2CCN(c3ccc(F)cc3)CC2)C(=O)c2ccccc21	0 mm	0 mm	0 mm	0 mm	0 mm	0 mm	0 mm	0 mm	0 mm	0 mm
31.2 µg/mL (≈ 78.4 µM)	inactive	inactive	31.2 µg/mL (≈ 78.4 µM)	inactive	O=C1C(Cl)=C(N2CCN(c3ccc([N+](=O)[O-])cc3)CC2)C(=O)c2ccccc21	0 mm	15.7 mm	0 mm	13.7 mm	0 mm	0 mm	0 mm	8.5 mm	0 mm	0 mm
125 µg/mL (≈ 390 µM)	62.5 µg/mL (≈ 195 µM)	500 µg/mL (≈ 1560 µM)	125 µg/mL (≈ 390 µM)	31.2 µg/mL (≈ 97.3 µM)	O=C1C(Cl)=C(N2CCN(CCO)CC2)C(=O)c2ccccc21	0 mm	0 mm	11.4 mm	0 mm	16 mm	6 mm	28.7 mm	0 mm	20.7 mm	8 mm
62.5 µg/mL (≈ 135 µM)	inactive	inactive	250 µg/mL (≈ 540 µM)	inactive	COc1ccc(CSC2=C(SCc3ccc(OC)cc3)C(=O)c3ccccc3C2=O)cc1	0 mm	11.7 mm	0 mm	7.4 mm	0 mm	0 mm	7 mm	7.4 mm	0 mm	0 mm
inactive	inactive	inactive	inactive	inactive	O=C1C(Sc2c(Cl)c(Cl)c(Cl)c(Cl)c2Cl)=C(N2CCOCC2)C(=O)c2ccccc21	0 mm	0 mm	0 mm	0 mm	0 mm	0 mm	0 mm	0 mm	0 mm	0 mm
inactive	inactive	inactive	inactive	inactive	CCCCOC(=O)CCSC1=C(SCCC(=O)OCCCC)C(=O)c2ccccc2C1=O	0 mm	0 mm	0 mm	6 mm	0 mm	0 mm	0 mm	0 mm	0 mm	0 mm
